The results in this text go back to ChEMBL document CHEMBL3988442, “University of Dundee, Small-Polar-MMV Screening Library” (2021).

Some results are limits rather than exact numbers.

The target in the assay is T1, Coenzyme A biosynthesis bifunctional protein CoaBC (Mycobacterium tuberculosis (strain ATCC 25618 / H37Rv), UniProt P9WNZ1).
T1 sequence (P9WNZ1 whole entry): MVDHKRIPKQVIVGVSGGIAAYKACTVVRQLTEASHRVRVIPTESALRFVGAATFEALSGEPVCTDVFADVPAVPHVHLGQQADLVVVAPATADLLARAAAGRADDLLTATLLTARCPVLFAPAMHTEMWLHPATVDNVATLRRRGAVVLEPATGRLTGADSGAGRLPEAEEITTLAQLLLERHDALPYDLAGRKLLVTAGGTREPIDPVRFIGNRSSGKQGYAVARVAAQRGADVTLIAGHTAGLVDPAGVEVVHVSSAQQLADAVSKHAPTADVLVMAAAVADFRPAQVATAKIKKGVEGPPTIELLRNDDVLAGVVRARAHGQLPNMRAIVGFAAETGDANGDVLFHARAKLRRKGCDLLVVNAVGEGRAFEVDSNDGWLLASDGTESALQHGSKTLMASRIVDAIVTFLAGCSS
The assay can be described thus: Biomol Green assay for MtCoaBC inhibitor, OD650 read. Type of assay: functional.

`CCn1cc(Cl)c(C(=O)NCCCN(C)C)n1`: the half-inhibitory concentration (IC50) – broadly, the concentration at which inhibition is half-maximal – was > 30.2 µM. To `Cc1cnc(NC(=O)C(C)Oc2ccc3c(c2)OCO3)s1` (configuration not stated) belongs > 30.2 µM; to `Cc1cc(C(F)(F)F)nn1CC(C)C(=O)Nc1ccccn1` (configuration not stated), > 30.2 µM; to `CCCNC(=O)NC(C)c1ccccn1` (configuration not stated), > 30.2 µM. To `CCc1nnc(SCc2nonc2C)n1C1CC1` belongs > 30.2 µM.

Take `O=C1CC(c2ccc(C(=O)O)cc2)c2c(sc3c2CCCC3)N1` (configuration not stated): the IC50 was > 50.1 µM. In the case of `COc1c(C2SCC(=O)Nc3[nH]ncc32)cc2c(c1OC)OCO2` (configuration not stated) it was > 30.2 µM. To `O=C(c1ccnc(C2CCNCC2)c1)N1CCCC(CO)C1` (configuration not stated) belongs > 30.2 µM; to `COCCC(=O)NCc1ccc(-c2ccccc2C(=O)O)nc1`, > 30.2 µM. To `Cc1nc(C)c(CC(=O)N2CCC(c3ccn4nccc4n3)CC2)s1` belongs > 30.2 µM; to `CN1CCc2nnc(C3CCCN3S(=O)(=O)c3ccc(F)cc3)n2CC1` (configuration not stated), > 30.2 µM; to `CNC(=O)CCc1cccc(C2CCCN(c3cc(C)ncn3)C2)n1` (configuration not stated), > 30.2 µM. For the compound `CC(C)C(=O)N1CCCC(Cc2cccnc2)C1` (configuration not stated), the IC50 was > 30.2 µM.

Take `Cc1nn(C)cc1S(=O)(=O)N[C@@H]1CCC[C@@H](N2CCCC2)[C@@H]1O`: the IC50 is > 30.2 µM. In the case of `Cc1nc2c(c(=O)[nH]1)CN(Cc1ccc3c(c1)CCCN3C)CC2` it was > 30.2 µM; in that of `CN1CCCC1c1ccc(N2CCOCC2)cn1` (configuration not stated), > 30.2 µM; in that of `COc1ccc(C2CN(c3cc(C)ncn3)CCN2C(C)=O)cc1` (configuration not stated), > 30.2 µM.

Regarding `CCn1cc(CN2CCC(c3ncc(Cl)cc3S(C)(=O)=O)CC2)c(C)n1`, the IC50 was > 30.2 µM.

As to `CCCn1cc(CN2CCOCC2c2[nH]ncc2C)cn1` (configuration not stated), the IC50 is > 30.2 µM. In the case of `CN(C)Cc1cccc(-c2cccnc2C(=O)NCc2cn(C)cn2)c1` it was > 30.2 µM; in that of `COCCN1CCN(Cc2cnc(C3(C)CCCCO3)nc2)CC1` (configuration not stated), > 50.1 µM. To `CN(C)c1ccc(C(=O)N2CCC(c3cc4cnccc4[nH]3)CC2)cc1` belongs > 30.2 µM; to `CC(=O)N1CC(c2ccnc(Nc3nccs3)n2)C1`, > 30.2 µM. In the case of `COc1cccc([C@@]2(O)CC[C@@H]3CN(C(=O)c4ccn(C)n4)C[C@@H]32)c1` it was > 30.2 µM; in that of `CCC(=O)NCCc1cc2nc(-c3ccncc3)ccn2n1`, > 30.2 µM; in that of `CCC1CCCCN1C(=O)Cn1nc(-c2ccc(C)o2)cc(N)c1=O` (configuration not stated), > 50.1 µM. As to `CCC(=O)N1CCCCC1c1nc(O)c2c(n1)CN(S(=O)(=O)CC)CC2` (configuration not stated), the IC50 was > 30.2 µM. To `CC1CCN(c2nc(O)cc(C3CC(=O)N(C4CCCCC4)C3)n2)CC1` (configuration not stated) belongs > 30.2 µM; to `CCNC(=O)C1(Cc2cc(-c3ccccc3)no2)CCCN(C)C1` (configuration not stated), > 30.2 µM; to `CCNC(=O)C1(Cc2cc(-c3ccc(C)cc3)no2)CCCN(C)C1` (configuration not stated), > 30.2 µM. To `CN(C)c1nccc(C2CCCCN2Cc2cnn3cccnc23)n1` (configuration not stated) belongs > 30.2 µM; to `CN1C[C@@H](C(=O)N2CCCOCC2)[C@@]2(CCc3ccccc3C(=O)N2)C1`, > 30.2 µM; to `CC(C(=O)NC1CC1)n1nc(-c2cccs2)cc(N)c1=O` (configuration not stated), > 30.2 µM. In the case of `CC(C)CC(NC(=O)c1cccs1)c1nc2cccnc2n1C` (configuration not stated) it was > 30.2 µM; in that of `CC[C@@H](Cn1ncc2ccccc2c1=O)NC(=O)c1ccco1`, > 30.2 µM. For the compound `CC(C)c1[nH]c2ncccc2c1CN1CCC(O)CC1`, the IC50 is > 30.2 µM.

Regarding `Cc1c(CN2CCCC(O)C2)[nH]c2ccc(F)cc12` (configuration not stated), the half-maximal inhibitory concentration (IC50) is > 30.2 µM.

Turning to `Cc1cnc2[nH]c(C(F)(F)F)c(CN3CCCC(CO)C3)c2c1` (configuration not stated), the IC50 was > 30.2 µM. To `Fc1ccc(Oc2nccnc2C2CCN(C3CCOCC3)CC2)cc1` belongs > 30.2 µM. In the case of `CN1CCC(c2cccc(C(=O)N(C)C)n2)CC1` it was > 30.2 µM.

In the case of `Nc1nccnc1CC1CCCN(Cc2c[nH]c3ccccc23)C1` (configuration not stated), the IC50 was > 30.2 µM. To `CNc1cc(C)nc(C2CCN(CCO)CC2)n1` belongs > 30.2 µM; to `O=C(C1CCOC1)N1Cc2ccccc2OC2(CCOCC2)C1` (configuration not stated), > 30.2 µM. In the case of `Cc1ccc(CNCCN2CCOCC2)o1` it was > 30.2 µM. In the case of `Clc1cccc(Cl)c1CN(CCCN1CCOCC1)Cc1cccnc1` it was > 30.2 µM; in that of `Cn1cc(CN2CCCC(c3nccnc3-c3cccc(F)c3)C2)cn1` (configuration not stated), > 30.2 µM; in that of `O=C(NCc1ccccc1)C1CN(c2ccccn2)CCO1` (configuration not stated), > 30.2 µM. For `CCc1nccn1-c1nccnc1C1CCN(C(=O)COC)CC1`, the IC50 was > 30.2 µM. As to `Cc1nc(Nc2nnc(C)s2)cc(C2CCCN2C)n1` (configuration not stated), the IC50 is > 30.2 µM. For the compound `O=C(C1CC1)N1CCC(c2nc(O)c3c(n2)CCN(C2CCCC2)C3)C1` (configuration not stated), the half-maximal inhibitory concentration (IC50) is > 30.2 µM. To `CC(O)c1cn(Cc2ccc(Cl)cc2)nn1` (configuration not stated) belongs > 30.2 µM; to `CCOc1ccc(C(=O)CC(SC2CCCCC2)C(=O)O)cc1` (configuration not stated), > 50.1 µM; to `Cc1nn(CC(=O)N2CCN(c3ncccn3)CC2)c(C)c1Cl`, > 30.2 µM. In the case of `Cc1ccc(CCCC(=O)N(C)CCN2CCOCC2)cc1` it was > 30.2 µM. In the case of `COc1ccc(CNC(=O)NC(C)(CO)C2CC2)c(C(F)(F)F)c1` (configuration not stated) it was > 30.2 µM; in that of `CCc1cnc(CN(C)C2CCN(CCCNS(C)(=O)=O)C2)o1` (configuration not stated), > 30.2 µM; in that of `CC(Cc1ccco1)NC(=O)CCn1cccn1` (configuration not stated), > 30.2 µM. Regarding `CC(C)C(C)(C#N)NC(=O)Cn1cc(C(N)=O)c(-c2ccccc2)n1` (configuration not stated), the IC50 was > 30.2 µM. To `FC(F)(F)c1cccnc1N1CCC(OC2CCOCC2)CC1` belongs > 30.2 µM; to `O=C(CCCC1CCCC1)NS(=O)(=O)CC1CC1`, > 30.2 µM; to `NS(=O)(=O)c1cc(C(=O)N2CCCCC2)cs1`, > 30.2 µM. For the compound `Cc1nnc(CN(C)S(=O)(=O)c2ccc(Br)cc2Cl)n1C`, the IC50 is > 30.2 µM. Regarding `Cc1cc(C)n(C2CN(c3ncnc4c3CCC4)C2)n1`, the IC50 was > 30.2 µM.

In the case of `COCCC(Cc1cccc(Br)c1)C(=O)O` (configuration not stated), the IC50 is > 50.1 µM. To `O=C(NCCC(=O)N1CCCC1)c1ccc(SCc2cccnc2)cc1` belongs > 30.2 µM; to `O=c1oc2ccccc2n1CCCN1CCCC1c1ccc(O)cc1` (configuration not stated), > 30.2 µM; to `CN(CC(N)=O)C(=O)c1csc(Br)c1`, > 30.2 µM.

As for `O=S(=O)(NC1CCCCC12OCCO2)c1cc(F)cc(F)c1` (configuration not stated), the IC50 is > 30.2 µM. To `Cc1[nH]ncc1C(=O)NCC(CO)Cc1ccc(Cl)cc1` (configuration not stated) belongs > 30.2 µM; to `CC(CO)(NC(=O)NCc1ccc(Br)s1)C1CC1` (configuration not stated), > 30.2 µM. With `CC(C)c1nc(CNC2CCN(C(=O)OC(C)(C)C)CC2)cs1`, the IC50 was > 30.2 µM. To `CC(CS(C)(=O)=O)N(C(=O)CCc1cccc(F)c1)C1CC1` (configuration not stated) belongs > 30.2 µM; to `Cn1ncnc1NS(=O)(=O)c1ccc(F)cc1Cl`, > 30.2 µM; to `O=C(CN1CCCC(c2ccn[nH]2)C1)Nc1nncs1` (configuration not stated), > 30.2 µM. To `C[S+]([O-])c1nncn1CC(=O)c1ccc(Cl)c(Cl)c1` (configuration not stated) belongs > 30.2 µM; to `COCCC(=O)N1CC2(CCN(Cc3ccoc3)C2)C1`, > 30.2 µM. As to `COc1cccc(N2CCN(C(=O)C(C)Oc3ccccc3)CC2=O)c1` (configuration not stated), the IC50 was > 30.2 µM.

On to `c1ccc(Cc2noc(CCNC3CCOC4(CCOCC4)C3)n2)cc1` (configuration not stated), for which the half-inhibitory concentration (IC50) is > 30.2 µM. In the case of `CCC(NC(=O)c1cc(CC(C)C)nn1C)c1cccc(C)n1` (configuration not stated) it was > 30.2 µM. In the case of `O=c1n(CC2COCCO2)nc(CC2CCNCC2)n1-c1ccccc1` (configuration not stated) it was > 30.2 µM; in that of `CC(C)N1CCC(C(=O)N2CCc3c(nc(CC4CC4)[nH]c3=O)C2)CC1`, > 30.2 µM.

In the case of `O=C1CCC2(CCN(Cc3cscn3)CC2)CN1CC1CCCO1` (configuration not stated), the IC50 is > 30.2 µM. To `CCC(=O)N1CCc2[nH]cnc2C12CCN(CC1CCOC1)CC2` (configuration not stated) belongs > 30.2 µM.

Turning to `Nc1ccncc1-n1cc(CCO)cn1`, the IC50 was > 30.2 µM. As for `O=C(NCc1nc(NC2CCCC2)c2cc(Cl)ccc2n1)c1ccoc1`, the 50% inhibitory concentration (IC50) was > 30.2 µM.

With `O=C(O)c1cc(-c2ccoc2)cc(S(=O)(=O)N2CCSCC2)c1`, the IC50 was > 30.2 µM. In the case of `COc1ccc(CN2CCC3(CCCN(C)C3=O)C2)c(OC)c1C` (configuration not stated) it was > 30.2 µM; in that of `CCC[C@@H]1CN(Cc2c[nH]nc2-c2ccc(OC)cc2)C[C@H]1NC(C)=O`, > 30.2 µM; in that of `CCc1ncc(C(=O)NCC2CCN(Cc3ccncc3)CC2)cn1`, > 30.2 µM. To `Cc1cc(C)cc(-n2ncc3c2CCCC3N)c1` (configuration not stated) belongs > 30.2 µM.

Regarding `CCc1nc(C)c(CN2CCCC(c3nn(C)c(=O)n3CC)C2)[nH]1` (configuration not stated), the IC50 is > 30.2 µM. For the compound `COCC(=O)N1CCC(Oc2cccc(C)c2)CC1`, the IC50 was > 30.2 µM. To `Cc1nc(O)cc(C2(C)CCCNC2)n1` (configuration not stated) belongs > 30.2 µM. To `CCn1nc(C)c(-c2cncn2Cc2ccccc2CN(C)C)c1C` belongs > 30.2 µM. In the case of `C[C@H]1CN2C[C@H](O)CC2CN1Cc1ccc2nccnc2c1` (some centres not stated) it was > 30.2 µM. For the compound `CN(C)C(=O)CN1CCCC2(CCN(c3ccsc3)C2=O)C1` (configuration not stated), the concentration for half-maximal inhibition (IC50) is > 30.2 µM. In the case of `CN(C)C(=O)CN1CCC2(CCCN(Cc3cccn3C)C2)C1=O` (configuration not stated) it was > 30.2 µM; in that of `Cc1csc(CN2CCC[C@]3(C[C@H](Oc4ccccn4)CO3)C2)n1`, > 30.2 µM. To `Cc1noc(C)c1CN1CCn2cc(CNc3ccccn3)nc2C1` belongs > 30.2 µM. To `O=C(NC1CCCC1)[C@@H]1CN(Cc2nccs2)C[C@H]2OCC[C@H]21` belongs > 30.2 µM; to `c1cncc(CN2CCc3ncnc(C4CCOC4)c3CC2)c1` (configuration not stated), > 30.2 µM; to `OCCN(Cc1ccncc1)CC1(c2ccc(Cl)cc2)CCCC1`, > 30.2 µM.
